Data taken from patent US20100010057A1, “THIAZOLE DERIVATIVES AS INHIBITORS OF P13 KINASE” (CHROMA THERAPEUTICS LTD., priority 2006, published 2010).

Legend:
[1] = target: PI3Kγ (human) (Homo sapiens, UniProt P48736); experiment: Inhibition of PI3 kinase γ activity (HTRF); type: biochemical; conditions: ATP at or close to Km, IC50 range, read-out: Inhibitor activity versus PI3 Kinase γ
Procedure: (B) Inhibition of PI3 Kinase V Activity
In a final reaction volume of 20 μl, PI3Kγ (human) is incubated in assay buffer containing 10 μM phosphatidylinositol-4,5-bisphosphate and MgATP (concentration as required). The reaction is initiated by the addition of the MgATP mix. After incubation for 30 minutes at room temperature, the reaction is stopped by the addition of 5 μl of stop solution containing EDTA and biotinylated phosphatidylinositol-3,4,5-trisphosphate. Finally, 5 μl of detection buffer is added, which contains europium-labelled anti-GST monoclonal antibody, GST-tagged GRP1 PH domain and streptavidin-allophycocyanin. The plate is then read in time-resolved fluorescence mode and the homogenous time-resolved fluorescence (HTRF) signal is determined according to the formula HTRF=10000×(Em665 nm/Em620 nm).
Duplicate data points are generated from a ⅓ log dilution series of a stock solution of compound in DMSO. Nine dilutions steps are made from a top concentration of 10 μM, and a ‘no compound’ blank is included. The HTRF PI 3-Kinase assay is performed at an ATP concentration at, or close to, the Km. HTRF ratio data is transformed into % activity of controls and analysed with a four parameter sigmoidal dose-response (variable slope) application. QC criteria is based on Top, Bottom, Hill slope, r^2 and IC50, the concentration giving 50% inhibition, which is reported.
(§1) For each of the assays (B), (C) and (D) above, IC50 values are allocated to one of three ranges as follows: […]

[2] = system: THP-1 cells; experiment: LPS-stimulation of THP-1 cells, TNF-α release; type: cell-based; conditions: Homo sapiens, LPS 1 μg/ml, 6 h, TNF-α by ELISA, IC50 range, read-out: Inhibitor activity versus THP-1 TNFα release
Procedure: (C) LPS-Stimulation of THP-1 Cells
THP-1 cells are plated in 100 μl at a density of 4×10^4 cells/well in V-bottomed 96 well tissue culture treated plates and incubated at 37° C. in 5% CO2 for 16 h. 2 h after the addition of the inhibitor in 100 μl of tissue culture media, the cells are stimulated with LPS (E. coli strain 005:B5, Sigma) at a final concentration of 1 μg/ml and incubated at 37° C. in 5% CO2 for 6 h. TNF-α levels are measured from cell-free supernatants by sandwich ELISA (R&D Systems #QTA00B)
as §1

[3] = system: human whole blood; experiment: LPS-stimulation of human whole blood, TNF-α release; type: cell-based; conditions: LPS 100 ng/ml, 6 h, TNF-α by ELISA, IC50 range, read-out: Inhibitor activity versus human whole blood TNFα release
Procedure: (D) LPS-Stimulation of Human Whole Blood
Whole blood is taken by venous puncture using heparinised vacutainers (Becton Dickinson) and diluted in an equal volume of RPMI1640 tissue culture media (Sigma). 100 μl is plated in V-bottomed 96 well tissue culture treated plates. 2 h after the addition of the inhibitor in 100 μl of RPMI1640 media, the blood is stimulated with LPS (E. coli strain 005:B5, Sigma) at a final concentration of 100 ng/ml and incubated at 37° C. in 5% CO2 for 6 h. TNF-α levels are measured from cell-free supernatants by sandwich ELISA (R&D Systems #QTA00B)
as §1

Sequence of PI3Kγ (human) (P48736 whole entry): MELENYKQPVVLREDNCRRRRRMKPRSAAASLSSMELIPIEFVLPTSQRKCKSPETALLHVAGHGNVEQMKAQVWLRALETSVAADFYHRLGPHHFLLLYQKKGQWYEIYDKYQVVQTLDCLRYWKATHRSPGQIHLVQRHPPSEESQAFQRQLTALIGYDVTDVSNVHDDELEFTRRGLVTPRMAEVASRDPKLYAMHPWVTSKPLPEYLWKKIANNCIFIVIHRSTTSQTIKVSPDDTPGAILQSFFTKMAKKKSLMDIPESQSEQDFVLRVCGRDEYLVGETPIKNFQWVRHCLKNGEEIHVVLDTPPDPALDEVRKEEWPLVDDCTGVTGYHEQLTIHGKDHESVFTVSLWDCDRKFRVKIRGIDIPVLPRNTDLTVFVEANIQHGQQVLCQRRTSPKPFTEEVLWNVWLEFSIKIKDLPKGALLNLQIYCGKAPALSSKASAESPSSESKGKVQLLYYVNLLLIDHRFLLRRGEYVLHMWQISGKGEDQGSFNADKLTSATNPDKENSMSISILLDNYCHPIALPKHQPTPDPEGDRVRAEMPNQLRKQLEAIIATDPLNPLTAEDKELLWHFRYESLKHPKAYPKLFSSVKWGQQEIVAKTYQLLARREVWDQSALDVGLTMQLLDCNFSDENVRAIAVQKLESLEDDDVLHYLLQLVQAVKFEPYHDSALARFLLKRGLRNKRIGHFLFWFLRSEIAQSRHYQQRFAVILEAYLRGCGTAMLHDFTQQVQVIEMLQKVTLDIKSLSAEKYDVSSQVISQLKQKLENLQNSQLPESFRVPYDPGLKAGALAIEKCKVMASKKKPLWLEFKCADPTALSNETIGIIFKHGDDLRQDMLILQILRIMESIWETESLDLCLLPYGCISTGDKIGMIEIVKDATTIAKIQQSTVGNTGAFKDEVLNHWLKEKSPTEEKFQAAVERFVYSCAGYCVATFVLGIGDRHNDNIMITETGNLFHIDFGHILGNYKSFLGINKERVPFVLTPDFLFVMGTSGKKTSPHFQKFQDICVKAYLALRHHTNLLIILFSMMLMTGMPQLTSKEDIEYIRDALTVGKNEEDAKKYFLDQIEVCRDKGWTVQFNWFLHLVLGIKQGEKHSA

Structure (SMILES) | IC50 [1] [nM] | IC50 [2] [nM] | IC50 [3] [nM]
Cc1nc(NC(=O)CCCN[C@@H](C)C(=O)OC2CCCC2)sc1-c1ccc(Cl)c(S(C)(=O)=O)c1 [Example 7, Cyclopentyl N-[4-({5-[4-chloro-3-(methylsulfonyl)phenyl]-4-methyl-1,3-thiazol-2-yl}amino)-4-oxobutyl]-L-alaninate] | > 1000 | 100 to 1000 | 100 to 1000
Cc1nc(NCC2CCC(N[C@@H](CC(C)C)C(=O)OC(C)(C)C)CC2)sc1-c1ccc(Cl)c(S(C)(=O)=O)c1 (stereo partly drawn) [Example 19, tert-Butyl N-{4-[({5-[4-chloro-3-(methylsulfonyl)phenyl]-4-methyl-1,3-thiazol-2-yl}amino)methyl]cyclohexyl}-L-leucinate] | > 1000 | > 1000 | 
CC(=O)Nc1nc(C)c(-c2ccc(Cl)c(S(=O)(=O)N[C@@H](COC(C)(C)C)C(=O)OC3CCCC3)c2)s1 [Example 21, Cyclopentyl N-{[5-(2-acetamido-4-methyl-3-thiazol-5-yl)-2-chlorophenyl]sulfonyl}-O-tert-butyl-L-serinate] | 100 to 1000 | > 1000 | 
CC(=O)Nc1nc(C)c(-c2ccc(Cl)c(S(=O)(=O)NCCN[C@@H](CC(C)C)C(=O)OC3CCCC3)c2)s1 [Example 22, Cyclopentyl N-[2-({[5-(2-acetamido-4-methyl-1,3-thiazol-5-yl)-2-chlorophenyl]sulfonyl}amino)ethyl]-L-leucinate] | > 1000 | > 1000 | 
Cc1nc(NC(=O)CCCN[C@@H](COP(=O)(O)O)C(=O)OC2CCCC2)sc1-c1ccc(Cl)c(S(C)(=O)=O)c1 [Example 26, Cyclopentyl N-[4-({5-[4-chloro-3-(methylsulfonyl)phenyl]-4-methyl-1,3-thiazol-2-yl}amino)-4-oxobutyl]-O-phosphono-L-serinate] | < 100 | > 1000 | 

The remaining lines, values ahead:

IC50 [1] [nM] | IC50 [2] [nM] | IC50 [3] [nM] | Structure (SMILES)
100 to 1000 | 100 to 1000 | > 1000 | Cc1nc(NC(=O)CCCN[C@@H](CC(C)C)C(=O)OC2CCCC2)sc1-c1ccc(Cl)c(S(C)(=O)=O)c1 [Example 6, Cyclopentyl N-[4-({5-[4-chloro-3-(methylsulfonyl)phenyl]-4-methyl-1,3-thiazol-2-yl}amino)-4-oxobutyl]-L-leucinate]
> 1000 | > 1000 |  | Cc1nc(NCCCN[C@@H](CC(C)C)C(=O)OC2CCCC2)sc1-c1ccc(Cl)c(S(C)(=O)=O)c1 [Example 17, Cyclopentyl N-[3-({5-[4-chloro-3-(methylsulfonyl)phenyl]-4-methyl-1,3-thiazol-2-yl}amino)propyl]-L-leucinate]
> 1000 | > 1000 |  | Cc1nc(NCC2CCC(N[C@@H](CC(C)C)C(=O)OC3CCCC3)CC2)sc1-c1ccc(Cl)c(S(C)(=O)=O)c1 (stereo partly drawn) [Example 18, Cyclopentyl N-{4-[({5-[4-chloro-3-(methylsulfonyl)phenyl]-4-methyl-1,3-thiazol-2-yl}amino)methyl]cyclohexyl}-L-leucinate]
< 100 | > 1000 |  | CC(=O)Nc1nc(C)c(-c2ccc(Cl)c(S(=O)(=O)N[C@@H](C)C(=O)OC3CCCC3)c2)s1 [Example 20, Cyclopentyl N-{[5-(2-acetamido-4-methyl-1,3-thiazol-5-yl)-2-chlorophenyl]sulfonyl}-L-alaninate]
> 1000 | > 1000 |  | Cc1nc(NC(=O)N[C@@H](CO)C(=O)OC2CCCC2)sc1-c1ccc(Cl)c(S(C)(=O)=O)c1 [Example 23, Cyclopentyl N-({5-[4-chloro-3-(methylsulfonyl)phenyl]-4-methyl-1,3-thiazol-2-yl}carbamoyl)-L-serinate]
> 1000 | < 100 | 100 to 1000 | Cc1nc(NC(=O)CCCN[C@@H](CO)C(=O)OC2CCCC2)sc1-c1ccc(Cl)c(S(C)(=O)=O)c1 [Example 24, Cyclopentyl N-[4-({5-[4-chloro-3-(methylsulfonyl)phenyl]-4-methyl-1,3-thiazol-2-yl}amino)-4-oxobutyl]-L-serinate]
100 to 1000 | > 1000 |  | CC(=O)Nc1nc(C)c(-c2ccc(Cl)c(S(=O)(=O)N[C@@H](CO)C(=O)OC3CCCC3)c2)s1 [Example 25, Cyclopentyl N-{[5-(2-acetamido-4-methyl-1,3-thiazol-5-yl)-2-chlorophenyl]sulfonyl}-L-serinate]
